Measurements reported in PMC8779952, “The First Dimeric Derivatives of the Glycopeptide Antibiotic Teicoplanin” (Pharmaceuticals, 2022).
Converted amounts (≈) assume the structure as drawn. Like-named read-outs stand apart in the source and are kept apart here.

Experiments:
Type in all cases: cell-based
[1] = test system: Staphylococcus aureus MRSA ATCC 33591
Protocol: (§1) The antibacterial evaluations were carried out as described in our previous publication. TLC was performed on Kieselgel 60 F254 (Merck) with detection either by immersion in ammonium molybdate–sulfuric acid solution followed by heating or by using Pauly’s reagent for detection. Flash column chromatography was performed using Silica gel 60 (Merck 0.040–0.063 mm).

[2] = test system: Staphylococcus epidermidis mecA
Protocol: as §1

[3] = test system: Staphylococcus aureus MSSA ATCC 29213
Protocol: as §1

[4] = test system: Enterococcus faecalis 15376 VanA; conditions: Enterococcus faecalis 15376 VanA (vanA gene positive, teicoplanin-resistant)
Protocol: as §1

[5] = test system: Staphylococcus epidermidis ATCC 35984 biofilm
Protocol: as §1

[6] = test system: Bacillus subtilis ATCC 6633
Protocol: as §1

[7] = test system: Enterococcus faecalis ATCC 29212
Protocol: as §1

[8] = test system: Enterococcus faecalis ATCC 51299 VanB
Protocol: as §1

[9] = Enterococcus faecalis ATCC 51299 VanB (vanB gene positive)

Molecule: Teicoplanin [Teico (1)]
- MIC ([1]; Staphylococcus aureus MRSA ATCC 33591 (methicillin-resistant)): 0.5 µg/mL
- MIC ([2]; Staphylococcus epidermidis mecA (mecA gene expression)): 16 µg/mL
- MIC ([3]; Staphylococcus aureus MSSA ATCC 29213 (methicillin-sensitive)): 0.5 µg/mL
- MIC [4]: 256 µg/mL
- MIC ([5]; Staphylococcus epidermidis ATCC 35984 biofilm): 2 µg/mL
- MIC ([6]; Bacillus subtilis ATCC 6633, minimum inhibitory concentration): 0.5 µg/mL
- MIC ([7]; Enterococcus faecalis ATCC 29212): 2 µg/mL
- MIC [8, 9]: 4 µg/mL

Molecule: CC(=O)N[C@H]1[C@H](O[C@@H]2c3ccc(c(Cl)c3)Oc3cc4cc(c3O)Oc3ccc(cc3Cl)C[C@H]3NC(=O)[C@H](N)c5ccc(O)c(c5)Oc5cc(O)cc(c5)[C@H](NC3=O)C(=O)N[C@H]4C(=O)N[C@H]3C(=O)N[C@@H]2C(=O)N[C@H](C(=O)O)c2cc(O)cc(O)c2-c2cc3ccc2O)O[C@H](CO)[C@@H](O)[C@@H]1O [Compound 3, teicoplanin pseudoaglycone]
- MIC ([1]; ATCC 33591): 1 µg/mL (≈ 0.713 µM)
- MIC ([2]; mecA): 1 µg/mL (≈ 0.713 µM)
- MIC ([3]; ATCC 29213): 2 µg/mL (≈ 1.43 µM)
- MIC [4]: 256 µg/mL (≈ 183 µM)
- MIC ([5]; ATCC 35984): 2 µg/mL (≈ 1.43 µM)
- MIC ([6]; ATCC 6633): 2 µg/mL (≈ 1.43 µM)
- MIC ([7]; ATCC 29212): 4 µg/mL (≈ 2.85 µM)
- MIC ([8]; ATCC 51299): 2 µg/mL (≈ 1.43 µM)

Molecule: CC(=O)N[C@H]1[C@H](O[C@@H]2c3ccc(c(Cl)c3)Oc3cc4cc(c3O)Oc3ccc(cc3Cl)C[C@H]3NC(=O)[C@H](N)c5ccc(O)c(c5)Oc5cc(O)cc(c5)[C@H](NC3=O)C(=O)N[C@H]4C(=O)N[C@H]3C(=O)N[C@@H]2C(=O)N[C@H](C(=O)O)c2cc(O)cc(O[C@H]4O[C@H](CO)[C@@H](O)[C@H](O)[C@@H]4O)c2-c2cc3ccc2O)O[C@H](CO)[C@@H](O)[C@@H]1O [Compound 2]
- MIC ([1]; ATCC 33591): 2 µg/mL (≈ 1.28 µM)
- MIC ([2]; mecA): 4 µg/mL (≈ 2.56 µM)
- MIC ([3]; ATCC 29213): 4 µg/mL (≈ 2.56 µM)
- MIC [4]: 4 µg/mL (≈ 2.56 µM)
- MIC ([5]; ATCC 35984): 2 µg/mL (≈ 1.28 µM)
- MIC ([6]; ATCC 6633): 2 µg/mL (≈ 1.28 µM)
- MIC ([7]; ATCC 29212): 8 µg/mL (≈ 5.11 µM)
- MIC [8, 9]: 8 µg/mL (≈ 5.11 µM)
